Laboratory results reported in patent US6426369B1, “Oxethazaine as antimicrobial agent” (Eisai Co., Ltd., priority 1997, dated 2002).

How the values were obtained:
H. pylori [1] = assay: Antimicrobial activity test 6: oxethazaine in combination with an antibiotic (AMPC, CAM, RXM), checker board method; assay type: cell-based, Helicobacter pylori; design: key to growth of H. pylori: “−” indicates the inhibited growth of H. pylori (presence of antimicrobial activity); “+” indicates the growth of H. pylori (absence of antimicrobial activity); settings: for effect of combined use: oxethazaine in combination with AMPC
Description: The effect of combined use with amoxicillin (AMPC), clarithromycin (CAM) or roxithromycin (RXM) was examined in the same manner as in antimicrobial activity test 1, using the checker board method.

H. pylori [2] = assay: Antimicrobial activity test 2: time for sterilizing H. pylori (viable cell count in Brucella broth); assay type: cell-based, Helicobacter pylori
Procedure: A solution of the test compound was added to Brucella broth containing 5% fetal bovine serum, cultured under slightly aerobic conditions at 37° C., and the vial microbe cell number in Brucella agar containing 7% horse blood was counted at predetermined intervals. The above compound (1) was dissolved in a 1% aqueous solution of […] (DMSO), and the above compound (2) was dissolved in water to prepare a solution of each test compound. “cfu” in Tables and Figures means “colony forming unit”.

Compound: CN(C(=O)CN(CCO)CC(=O)N(C)C(C)(C)Cc1ccccc1)C(C)(C)Cc1ccccc1 [Oxethazaine, 2,2′-[(2-hydroxyethyl)amino]bis[N-(1,1-dimethyl-2-phenylethyl)-N-methylacetamide]]
- growth of H. pylori (H. pylori [1]; strain 90-414, oxethazaine 50 μg/ml, AMPC 0): −
- growth of H. pylori (H. pylori [1]; strain 90-414, oxethazaine 100 μg/ml, AMPC 0): −
- combined effect of oxethazaine and CAM (H. pylori [1]; strain 90-428, checker board): 90-428 (synergism)
- combined effect of oxethazaine and RXM (H. pylori [1]; strain EH 12, checker board): EH 12 (additive effect)
- combined effect of oxethazaine and RXM (H. pylori [1]; strain EH 13, checker board): EH 13 (additive effect)
- combined effect of oxethazaine and RXM (H. pylori [1]; strain NCTC11637, checker board): NCTC11637 (additive effect)
- growth of H. pylori (H. pylori [1]; strain NCTC11637, oxethazaine 3.13 μg/ml, CAM 0): +
- growth of H. pylori (H. pylori [1]; strain NCTC11637, oxethazaine 6.25 μg/ml, CAM 0): +
- growth of H. pylori (H. pylori [1]; strain NCTC11637, oxethazaine 12.5 μg/ml, CAM 0): −
- growth of H. pylori (H. pylori [1]; strain NCTC11637, oxethazaine 25 μg/ml, CAM 0): −
- growth of H. pylori (H. pylori [1]; strain NCTC11637, oxethazaine 50 μg/ml, CAM 0): −
- growth of H. pylori (H. pylori [1]; strain NCTC11637, oxethazaine 100 μg/ml, CAM 0): −
- combined effect of oxethazaine and RXM (H. pylori [1]; strain NCTC11639, checker board): NCTC11639 (additive effect)
- growth of H. pylori (H. pylori [1]; strain NCTC11639, oxethazaine 3.13 μg/ml, CAM 0): +
- growth of H. pylori (H. pylori [1]; strain NCTC11639, oxethazaine 6.25 μg/ml, CAM 0): +
- growth of H. pylori (H. pylori [1]; strain NCTC11639, oxethazaine 12.5 μg/ml, CAM 0): +
- growth of H. pylori (H. pylori [1]; strain NCTC11639, oxethazaine 25 μg/ml, CAM 0): −
- growth of H. pylori (H. pylori [1]; strain NCTC11639, oxethazaine 50 μg/ml, CAM 0): −
- growth of H. pylori (H. pylori [1]; strain NCTC11639, oxethazaine 100 μg/ml, CAM 0): −
- effect of combined use (H. pylori [1]; the 34th table, strain NCTC11637): NCTC11637 (additive effect)
- effect of combined use (H. pylori [1]; the 34th table, strain NCTC11639): NCTC11639 (additive effect)
- effect of combined use (H. pylori [1]; the 35th table, strain NCTC11637): NCTC11637 (additive effect)
- effect of combined use (H. pylori [1]; the 35th table, strain NCTC11639): NCTC11639 (additive effect)
- effect of combined use (H. pylori [1]; the 36th table, strain EH 13): EH 13 (additive effect)
- effect of combined use (H. pylori [1]; the 36th table, strain EH 16): EH 16 (additive effect)
- effect of combined use (H. pylori [1]; the 37th table, strain EH 13): EH 13 (additive effect)
- effect of combined use (H. pylori [1]; the 37th table, strain EH 16): EH 16 (additive effect)
- Viable microbe cell number (H. pylori [2]; EH12, 1 MIC, 0 h): 5.60 log10cfu/ml
- Viable microbe cell number (H. pylori [2]; EH12, 1 MIC, 3 h): 5.67 log10cfu/ml
- Viable microbe cell number (H. pylori [2]; EH12, 1 MIC, 6 h): 5.61 log10cfu/ml
- Viable microbe cell number (H. pylori [2]; EH12, 1 MIC, 9 h): 5.68 log10cfu/ml
- Viable microbe cell number (H. pylori [2]; EH12, 1 MIC, 24 h): 4.51 log10cfu/ml
- Viable microbe cell number (H. pylori [2]; EH12, 2 MIC, 0 h): 5.60 log10cfu/ml
- Viable microbe cell number (H. pylori [2]; EH12, 2 MIC, 3 h): 1.78 log10cfu/ml
- Viable microbe cell number (H. pylori [2]; EH12, 2 MIC, 6 h): 0 log10cfu/ml
- Viable microbe cell number (H. pylori [2]; EH12, 2 MIC, 9 h): 0 log10cfu/ml
- Viable microbe cell number (H. pylori [2]; EH12, 2 MIC, 24 h): 0 log10cfu/ml
- Viable microbe cell number (H. pylori [2]; EH12, 4 MIC, 0 h): 5.60 log10cfu/ml
- Viable microbe cell number (H. pylori [2]; EH12, 4 MIC, 3 h): 0 log10cfu/ml
- Viable microbe cell number (H. pylori [2]; EH12, 4 MIC, 6 h): 0 log10cfu/ml
- Viable microbe cell number (H. pylori [2]; EH12, 4 MIC, 9 h): 0 log10cfu/ml
- Viable microbe cell number (H. pylori [2]; EH12, 4 MIC, 24 h): 0 log10cfu/ml
- Viable microbe cell number (H. pylori [2]; EH12, ½ MIC, 0 h): 5.60 log10cfu/ml
- Viable microbe cell number (H. pylori [2]; EH12, ½ MIC, 3 h): 5.77 log10cfu/ml
- Viable microbe cell number (H. pylori [2]; EH12, ½ MIC, 6 h): 5.19 log10cfu/ml
- Viable microbe cell number (H. pylori [2]; EH12, ½ MIC, 9 h): 5.71 log10cfu/ml
- Viable microbe cell number (H. pylori [2]; EH12, ½ MIC, 24 h): 5.27 log10cfu/ml
- sterilization curve (H. pylori [2]; FIGS. 1 to 4, compared with the antibiotic): rapidly dropping sterilization curve
- Viable microbe cell number (H. pylori [2]; NCTC 11637, 1 MIC, 0 h): 5.70 log10cfu/ml
- Viable microbe cell number (H. pylori [2]; NCTC 11637, 1 MIC, 3 h): 5.24 log10cfu/ml
- Viable microbe cell number (H. pylori [2]; NCTC 11637, 1 MIC, 6 h): 4.98 log10cfu/ml
- Viable microbe cell number (H. pylori [2]; NCTC 11637, 1 MIC, 9 h): 4.64 log10cfu/ml
- Viable microbe cell number (H. pylori [2]; NCTC 11637, 1 MIC, 24 h): 4.30 log10cfu/ml
- Viable microbe cell number (H. pylori [2]; NCTC 11637, 2 MIC, 0 h): 5.70 log10cfu/ml
- Viable microbe cell number (H. pylori [2]; NCTC 11637, 2 MIC, 3 h): 1.90 log10cfu/ml
- Viable microbe cell number (H. pylori [2]; NCTC 11637, 2 MIC, 6 h): 0 log10cfu/ml
- Viable microbe cell number (H. pylori [2]; NCTC 11637, 2 MIC, 9 h): 0 log10cfu/ml
- Viable microbe cell number (H. pylori [2]; NCTC 11637, 2 MIC, 24 h): 0 log10cfu/ml
- Viable microbe cell number (H. pylori [2]; NCTC 11637, 4 MIC, 0 h): 5.70 log10cfu/ml
- Viable microbe cell number (H. pylori [2]; NCTC 11637, 4 MIC, 3 h): 0 log10cfu/ml
- Viable microbe cell number (H. pylori [2]; NCTC 11637, 4 MIC, 6 h): 0 log10cfu/ml
- Viable microbe cell number (H. pylori [2]; NCTC 11637, 4 MIC, 9 h): 0 log10cfu/ml
- Viable microbe cell number (H. pylori [2]; NCTC 11637, 4 MIC, 24 h): 0 log10cfu/ml
- Viable microbe cell number (H. pylori [2]; NCTC 11637, ½ MIC, 0 h): 5.70 log10cfu/ml
- Viable microbe cell number (H. pylori [2]; NCTC 11637, ½ MIC, 3 h): 5.48 log10cfu/ml
- Viable microbe cell number (H. pylori [2]; NCTC 11637, ½ MIC, 6 h): 5.27 log10cfu/ml
- Viable microbe cell number (H. pylori [2]; NCTC 11637, ½ MIC, 9 h): 5.11 log10cfu/ml
- Viable microbe cell number (H. pylori [2]; NCTC 11637, ½ MIC, 24 h): 5.51 log10cfu/ml
- Viable microbe cell number (H. pylori [2]; NCTC 11916, 1 MIC, 0 h): 5.72 log10cfu/ml
- Viable microbe cell number (H. pylori [2]; NCTC 11916, 1 MIC, 3 h): 6.04 log10cfu/ml
- Viable microbe cell number (H. pylori [2]; NCTC 11916, 1 MIC, 6 h): 5.92 log10cfu/ml
- Viable microbe cell number (H. pylori [2]; NCTC 11916, 1 MIC, 9 h): 5.84 log10cfu/ml
- Viable microbe cell number (H. pylori [2]; NCTC 11916, 1 MIC, 24 h): 4.67 log10cfu/ml
- Viable microbe cell number (H. pylori [2]; NCTC 11916, 2 MIC, 0 h): 5.77 log10cfu/ml
- Viable microbe cell number (H. pylori [2]; NCTC 11916, 2 MIC, 3 h): 3.63 log10cfu/ml
- Viable microbe cell number (H. pylori [2]; NCTC 11916, 2 MIC, 6 h): 2.83 log10cfu/ml
- Viable microbe cell number (H. pylori [2]; NCTC 11916, 2 MIC, 9 h): 2.61 log10cfu/ml
- Viable microbe cell number (H. pylori [2]; NCTC 11916, 2 MIC, 24 h): 0 log10cfu/ml
- Viable microbe cell number (H. pylori [2]; NCTC 11916, 4 MIC, 0 h): 5.77 log10cfu/ml
- Viable microbe cell number (H. pylori [2]; NCTC 11916, 4 MIC, 3 h): 0 log10cfu/ml
- Viable microbe cell number (H. pylori [2]; NCTC 11916, 4 MIC, 6 h): 0 log10cfu/ml
- Viable microbe cell number (H. pylori [2]; NCTC 11916, 4 MIC, 9 h): 0 log10cfu/ml
- Viable microbe cell number (H. pylori [2]; NCTC 11916, 4 MIC, 24 h): 0 log10cfu/ml
- Viable microbe cell number (H. pylori [2]; NCTC 11916, ½ MIC, 0 h): 5.77 log10cfu/ml
- Viable microbe cell number (H. pylori [2]; NCTC 11916, ½ MIC, 3 h): 5.70 log10cfu/ml
- Viable microbe cell number (H. pylori [2]; NCTC 11916, ½ MIC, 6 h): 6.35 log10cfu/ml
- Viable microbe cell number (H. pylori [2]; NCTC 11916, ½ MIC, 9 h): 6.32 log10cfu/ml
- Viable microbe cell number (H. pylori [2]; NCTC 11916, ½ MIC, 24 h): 6.44 log10cfu/ml
